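Results reflect a 48-hour exposure of cells in 96-well plates to compound at five concentrations. GI50 is the concentration that inhibits growth by half.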 Active and inactive are the calls of the source. Rule as the data show it: active = GI50 up to about 1.1 µM and inactive = higher.
How the values were obtained:
Test in all cases: NCI anticancer screen, dose series, 48 h
786-0 = tested on: 786-0
BT-549 = tested on: BT-549
CAKI-1 = tested on: CAKI-1
CCRF-CEM = tested on: CCRF-CEM
COLO 205 = tested on: COLO 205
DU-145 = tested on: DU-145
HL-60 = tested on: HL-60
HT-29 = tested on: HT-29
KM12 = tested on: KM12
MDA-MB-435 = tested on: MDA-MB-435
MDA-N = tested on: MDA-N
OVCAR-4 = tested on: OVCAR-4
PC-3 = tested on: PC-3
SF-268 = tested on: SF-268
SN12C = tested on: SN12C
ACHN = tested on: ACHN
HOP-92 = tested on: HOP-92
MCF7 = tested on: MCF7
SK-OV-3 = tested on: SK-OV-3
UO-31 = tested on: UO-31

Measured: GI50

CCCOC(=O)c1cc(C(=CCC[C@H]2CC[C@@]3(C)[C@@H](CC[C@@H]4[C@@H]3CC[C@]3(C)[C@@H](C(C)CCCC(C)C)CC[C@@H]43)C2)c2cc(Cl)c(O)c(C(=O)OCCC)c2)cc(Cl)c1O (stereo partly specified)
inactive: 786-0 > 50 µM | BT-549 > 50 µM | CAKI-1 > 50 µM | CCRF-CEM > 50 µM | COLO 205 > 50 µM | DU-145 > 50 µM | HL-60 > 50 µM | HT-29 > 50 µM | KM12 > 50 µM | MDA-MB-435 > 50 µM | MDA-N > 50 µM | OVCAR-4 > 50 µM | PC-3 > 50 µM | SF-268 > 50 µM | SN12C > 50 µM

c1ccc(B2OCC(C3OB(c4ccccc4)OC4COB(c5ccccc5)OC43)O2)cc1 (stereo unspecified)
inactive: 786-0 > 100 µM | ACHN > 100 µM | BT-549 > 100 µM | CAKI-1 > 100 µM | CCRF-CEM > 100 µM | COLO 205 > 100 µM | DU-145 > 100 µM | HOP-92 > 100 µM | HT-29 > 100 µM | KM12 > 100 µM | MCF7 > 100 µM | MDA-MB-435 > 100 µM | MDA-N > 100 µM | OVCAR-4 > 100 µM | PC-3 > 100 µM | SF-268 > 100 µM | SK-OV-3 > 100 µM | SN12C > 100 µM | UO-31 > 100 µM

Clc1sc(Cl)c2c1[C@@H](Cl)C[C@@H]2Cl
inactive: 786-0 > 100 µM | ACHN > 100 µM | BT-549 > 100 µM | CAKI-1 94.6 µM | CCRF-CEM 23.7 µM | COLO 205 > 100 µM | DU-145 > 100 µM | HOP-92 37.4 µM | HT-29 > 100 µM | KM12 > 100 µM | MCF7 52.4 µM | MDA-MB-435 92 µM | MDA-N > 100 µM | OVCAR-4 74.3 µM | SF-268 62.1 µM | SK-OV-3 > 100 µM | SN12C > 100 µM | UO-31 76 µM

CCOC(=O)CCC(NC(=O)c1ccc(Nc2cnc3cc(C(F)(F)F)ccc3n2)cc1)C(=O)OCC (stereo unspecified)
inactive: 786-0 9.75 µM | ACHN 63.2 µM | BT-549 18.5 µM | CAKI-1 24.7 µM | CCRF-CEM > 100 µM | COLO 205 80.4 µM | DU-145 > 100 µM | HL-60 > 100 µM | HOP-92 23.9 µM | HT-29 > 100 µM | KM12 61.9 µM | MCF7 > 31.6 µM | MDA-MB-435 > 100 µM | MDA-N > 100 µM | OVCAR-4 36.7 µM | SF-268 14.1 µM | SN12C > 100 µM | UO-31 > 100 µM

CCOC(=O)c1[nH]cc(C)c1-c1ccc2c(-c3ccccc3)nc3ccccc3n12
inactive: 786-0 3.56 µM | ACHN 4.01 µM | BT-549 5.13 µM | CAKI-1 5.89 µM | CCRF-CEM 2.68 µM | COLO 205 2.86 µM | DU-145 3.8 µM | HOP-92 3.52 µM | HT-29 2.54 µM | KM12 3.45 µM | MCF7 2.1 µM | MDA-MB-435 2.23 µM | MDA-N 2.66 µM | OVCAR-4 3.85 µM | PC-3 3.01 µM | SF-268 3.94 µM | SK-OV-3 4.4 µM | SN12C 3.37 µM | UO-31 3.86 µM

CCOC(=O)c1ccc(C(=O)/C(C#N)=C2\CCCN2)n1C
inactive: 786-0 > 100 µM | ACHN > 100 µM | BT-549 78.9 µM | CAKI-1 > 100 µM | CCRF-CEM > 100 µM | COLO 205 > 100 µM | DU-145 95.1 µM | HL-60 34.2 µM | HT-29 79.4 µM | KM12 > 100 µM | MCF7 40.4 µM | MDA-MB-435 31.2 µM | MDA-N 34 µM | OVCAR-4 > 100 µM | PC-3 > 100 µM | SF-268 > 100 µM | SK-OV-3 > 100 µM | SN12C > 100 µM | UO-31 > 100 µM

CNC(=O)N(C)C(=O)c1ccccc1C(=O)N(C)C(=O)NC
inactive: 786-0 > 10 µM | ACHN > 10 µM | BT-549 > 10 µM | CAKI-1 > 10 µM | CCRF-CEM > 10 µM | COLO 205 > 10 µM | DU-145 > 10 µM | HL-60 > 10 µM | HOP-92 > 10 µM | HT-29 > 10 µM | KM12 > 10 µM | MCF7 > 10 µM | MDA-N > 10 µM | OVCAR-4 > 10 µM | PC-3 > 10 µM | SF-268 > 10 µM | SK-OV-3 > 10 µM | SN12C > 10 µM | UO-31 > 10 µM

COC(=O)NC1(NC(=O)OC)NC(=O)c2ccccc2N1
inactive: 786-0 > 100 µM | ACHN > 100 µM | BT-549 > 100 µM | CAKI-1 > 100 µM | CCRF-CEM > 100 µM | COLO 205 > 100 µM | DU-145 > 100 µM | HL-60 > 100 µM | HT-29 > 100 µM | KM12 80.4 µM | MCF7 > 100 µM | MDA-N 64.1 µM | OVCAR-4 > 100 µM | PC-3 > 100 µM | SF-268 > 100 µM | SK-OV-3 > 100 µM | SN12C > 100 µM | UO-31 > 100 µM

Cc1ncc([N+](=O)[O-])n1CCN(C)C(=O)CCCn1ccnc1[N+](=O)[O-]
inactive: 786-0 > 100 µM | ACHN > 100 µM | BT-549 > 100 µM | CAKI-1 > 100 µM | CCRF-CEM > 100 µM | COLO 205 > 100 µM | DU-145 > 100 µM | HL-60 > 100 µM | HT-29 > 100 µM | KM12 > 100 µM | MCF7 > 100 µM | MDA-MB-435 > 100 µM | MDA-N > 100 µM | OVCAR-4 > 100 µM | PC-3 > 100 µM | SF-268 > 100 µM | SK-OV-3 > 100 µM | SN12C > 100 µM | UO-31 > 100 µM

N#C/C(=C\c1ccccc1)c1nc(-c2cc3ccccc3oc2=O)cs1
inactive: 786-0 53.5 µM | ACHN 38.6 µM | BT-549 27.3 µM | CAKI-1 > 100 µM | CCRF-CEM > 100 µM | COLO 205 > 100 µM | DU-145 > 100 µM | HL-60 > 100 µM | HOP-92 32.1 µM | HT-29 > 100 µM | KM12 75.3 µM | MCF7 > 100 µM | MDA-MB-435 > 100 µM | OVCAR-4 41.5 µM | PC-3 > 100 µM | SF-268 60 µM | SK-OV-3 72.8 µM | SN12C > 100 µM | UO-31 93.1 µM

O=S(=O)(O)c1ccc(/N=N/c2ccc3c(S(=O)(=O)O)cccc3c2O)c2ccccc12
inactive: 786-0 > 100 µM | ACHN > 100 µM | BT-549 > 100 µM | CAKI-1 > 100 µM | COLO 205 > 100 µM | DU-145 > 100 µM | HOP-92 > 100 µM | HT-29 > 100 µM | KM12 > 100 µM | MCF7 > 100 µM | MDA-MB-435 > 100 µM | MDA-N > 100 µM | OVCAR-4 > 100 µM | PC-3 > 100 µM | SF-268 > 100 µM | SK-OV-3 > 100 µM | SN12C > 100 µM | UO-31 39.3 µM

O=C(O)c1ccc(NNc2cc(=O)[nH]c(=O)[nH]2)cc1
inactive: 786-0 > 100 µM | ACHN > 100 µM | BT-549 > 100 µM | CAKI-1 > 10 µM | CCRF-CEM > 100 µM | COLO 205 > 100 µM | DU-145 > 100 µM | HL-60 > 100 µM | HT-29 > 100 µM | KM12 > 100 µM | MCF7 > 100 µM | MDA-N > 100 µM | OVCAR-4 > 100 µM | PC-3 24.4 µM | SF-268 > 100 µM | SK-OV-3 > 100 µM | SN12C > 100 µM | UO-31 > 100 µM

CO/C(=N\N=C\c1ccc(OC)c(OC)c1)c1ccncc1
inactive: 786-0 > 10 µM | BT-549 > 10 µM | CAKI-1 > 10 µM | CCRF-CEM > 10 µM | COLO 205 > 10 µM | DU-145 > 10 µM | HL-60 > 10 µM | HOP-92 > 10 µM | KM12 > 10 µM | MCF7 > 10 µM | MDA-N > 10 µM | OVCAR-4 > 10 µM | SF-268 > 10 µM | SK-OV-3 > 10 µM | SN12C > 10 µM | UO-31 9.55 µM

Nc1c(C(=O)O)nnc2ccc(Cl)cc12
inactive: 786-0 > 100 µM | ACHN > 100 µM | BT-549 > 100 µM | CAKI-1 > 100 µM | CCRF-CEM > 100 µM | COLO 205 > 100 µM | DU-145 > 100 µM | HL-60 > 100 µM | HT-29 > 100 µM | KM12 > 100 µM | MCF7 > 100 µM | MDA-MB-435 > 100 µM | MDA-N > 100 µM | OVCAR-4 > 100 µM | PC-3 > 100 µM | SF-268 > 100 µM | SK-OV-3 > 100 µM | SN12C > 100 µM | UO-31 94.8 µM

CC(C)c1cc(=O)[nH]c2cc(N)ccc12
inactive: 786-0 > 100 µM | ACHN > 100 µM | BT-549 > 100 µM | CAKI-1 > 100 µM | CCRF-CEM > 100 µM | COLO 205 > 100 µM | DU-145 > 100 µM | HOP-92 > 100 µM | HT-29 > 100 µM | KM12 > 100 µM | MCF7 > 100 µM | MDA-MB-435 > 100 µM | MDA-N > 100 µM | OVCAR-4 > 100 µM | PC-3 > 100 µM | SN12C > 100 µM | UO-31 > 100 µM

— ChEMBL document CHEMBL1201862, “PubChem BioAssay data set” (2004)
